Reference: patent US6207675A, “Pyrrole derivatives, their preparation and pharmaceutical compositions containing them” (Rhone-Poulenc Rorer S.A., priority 1996, dated 2001)
In brackets after ≈: the same amount, converted by molar mass.

Tests used:
[1] = system: human cytomegalovirus Davis strain; experiment: Antiviral activity on human cytomegalovirus, Davis strain (protection from virus-induced cytopathogenic effect); format: cell-based; settings: for IC50 (concentration necessary to inhibit 50% of the cytopathogenic effect induced by the virus): Davis strain; for IC50: Human betaherpesvirus 5, Davis strain, read-out: IC50 (concentration necessary to inhibit 50% of the cytopathogenic effect induced by the virus)
Description: (§1) Infect. Dis., 10, 1026-1033 (1991); or in the technique described by Andrei et al., Eur. J. Clin. Microbiol. Infect. Dis., 11, 143-151 (1992), Reymen et al., Antiviral Res., 28, 343-357 (1995).
(§2) The technique used consists in the measurement of the cytopathogenic effect of the herpesvirus and of its protection by the use of products of general formula (I). The antiviral activity is assessed by measuring the IC50 (concentration necessary to inhibit 50% of the cytopathogenic effect induced by the virus).
(§3) The activity of the products according to the invention on the human cytomegalovirus has been studied on the Davis and AD-169 strains.

[2] = system: human cytomegalovirus AD-169 strain; experiment: Antiviral activity on human cytomegalovirus, AD-169 strain (protection from virus-induced cytopathogenic effect); format: cell-based
Description: as §1, §2, §3

SMILES | IC50 (concentration necessary to inhibit 50% of the cytopathogenic effect induced by the virus) ([1]; listed as 7 [(R,S) form]) [µg/mL] | IC50 [1] [µg/mL] | IC50 (concentration necessary to inhibit 50% of the cytopathogenic effect induced by the virus) ([2]; AD-169 strain) [µg/mL] | IC50 ([2]; Human betaherpesvirus 5, AD169, AD-169 strain, read-out: IC50 (concentration necessary to inhibit 50% of the cytopathogenic effect induced by the virus)) [µg/mL] | IC50 (concentration necessary to inhibit 50% of the cytopathogenic effect induced by the virus) [1] [µg/mL]
NC(=O)c1c(Cl)c(-c2cccnc2)n2c1C(O)CCC2 (racemic) [Example 7, (R,S)-2-chloro-8-hydroxy-3-pyridin-3-yl-5,6,7,8-tetrahydroindolizine-1-carboxamide] | 0.015 | 0.027 (≈ 0.0925 µM) |  |  | 
NC(=O)c1c(Cl)c(-c2cccnc2)n2c1C=C(Cl)CC2 [Example 1, 2,7-dichloro-3-pyridin-3-yl-5,6-dihydroindolizine-1-carboxamide] |  | 0.5 (≈ 1.62 µM) |  |  | 
COC1=Cc2c(C(N)=O)c(Cl)c(-c3cccnc3)n2CC1 [Example 2, 2-chloro-7-methoxy-3-pyridin-3-yl-5,6-dihydroindolizine-1-carboxamide] |  | 0.43 (≈ 1.42 µM) | 0.86 | 0.5 (≈ 1.65 µM) | 0.72
